Laboratory results: PMC3024946, “Hydroxyproline-containing collagen analogs trigger the release and activation of collagen-sequestered proMMP-2 by competition with prodomain-derived peptide P33-42” (Fibrogenesis & Tissue Repair, 2011)
Entries after “also recorded” stand apart in the source; their conditions may differ.

Key:
ProMMP-2 [1] = assay: Fluorogenic short-substrate assay, activation of proMMP-2; type: biochemical, human; details: 10-fold excess; 50 ng proMMP-2; 800 nM MCA-Pro-Leu-Gly-Leu-Dnp-Dap-Ala-Arg-NH2; 37°C; on BSA or CI
Protocol: (§1) Enzymatic activities of MMPs were studied spectrofluorimetrically by cleavage of fluorogenic substrates in MMP activity buffer within 2 to 5 h. For gelatinases 800 nM MCA-Pro-Leu-Gly-Leu-Dnp-Dap-Ala-Arg-NH2 (λex/em 328/393 nm; Bachem, Bubendorf, Switzerland) or 10 μg/ml DQ-gelatine were used, according to the method described by Knight et al. for collagenases 800 nM MCA-Pro-Cha-Gly-Nva-His-Ala-Dpa-NH2 (λex/em 280/360 nm; Anaspec, San José, CA, USA). In some experiments, proMMP-2 was fully activated in the presence of 1 mM APMA prior to the kinetic measurements. A quantity of 50 ng pro- or actMMP-2 alone or mixed with 10- to 150-fold molar excesses of (GPO)10, GAP, P33-42 or mixtures of (GPO)10 and P33-42, were added to CI-coated, BSA-coated (1 μg/well both) or uncoated wells containing 150 μl of the respective substrate solution. The peptide P33-42 was purchased from the Institute of Biochemistry (Humboldt-University, Berlin, Germany). The influence of CI on MMP-2 enzymatic activity against the quenched fluorescent substrate could be excluded. Background subtraction (measurement without MMPs) was applied to all curves. All experiments were performed with a fluorescence microplate reader (Molecular Devices, Sunnyvale, CA, USA) and black 96-well microtiter plates with a clear bottom (Greiner bio-one, Frickenhausen, Germany).

ProMMP-2 [2] = assay: Substrate gel zymography of treated proMMP-2; type: biochemical, human; details: 50 ng proMMP-2, 2-h incubation at room temperature
Protocol: Samples containing MMP-2 were diluted with zymogram sample buffer (Bio-Rad, Munich, Germany) and separated on homogeneous 10% SDS-PAGE gels containing 1 mg/ml (wt/vol) gelatine (Bio-Rad), washed with excess MMP activity buffer containing 2.5% (vol/vol) Triton X-100 to remove SDS, and incubated with MMP activity buffer for 24 h. Gels were stained with Coomassie Blue R-250. Gels showing proteolytic bands corresponding to proMMP-2 (72 kDa) or actMMP-2 (62 kDa) were scanned (Plustek, Norderstedt, Germany) and analyzed from inverted grayscale images.

proMMP-2 / CI = target: T1, proMMP-2 / CI (Homo sapiens, UniProt P08253); assay: SPR, competition of proMMP-2 binding to CI, nonactivating buffer
T1 construct: prodomain-containing proMMP-2 or proMMP-9; purchased Invitek
T1 sequence (P08253 30-660 limits assumed): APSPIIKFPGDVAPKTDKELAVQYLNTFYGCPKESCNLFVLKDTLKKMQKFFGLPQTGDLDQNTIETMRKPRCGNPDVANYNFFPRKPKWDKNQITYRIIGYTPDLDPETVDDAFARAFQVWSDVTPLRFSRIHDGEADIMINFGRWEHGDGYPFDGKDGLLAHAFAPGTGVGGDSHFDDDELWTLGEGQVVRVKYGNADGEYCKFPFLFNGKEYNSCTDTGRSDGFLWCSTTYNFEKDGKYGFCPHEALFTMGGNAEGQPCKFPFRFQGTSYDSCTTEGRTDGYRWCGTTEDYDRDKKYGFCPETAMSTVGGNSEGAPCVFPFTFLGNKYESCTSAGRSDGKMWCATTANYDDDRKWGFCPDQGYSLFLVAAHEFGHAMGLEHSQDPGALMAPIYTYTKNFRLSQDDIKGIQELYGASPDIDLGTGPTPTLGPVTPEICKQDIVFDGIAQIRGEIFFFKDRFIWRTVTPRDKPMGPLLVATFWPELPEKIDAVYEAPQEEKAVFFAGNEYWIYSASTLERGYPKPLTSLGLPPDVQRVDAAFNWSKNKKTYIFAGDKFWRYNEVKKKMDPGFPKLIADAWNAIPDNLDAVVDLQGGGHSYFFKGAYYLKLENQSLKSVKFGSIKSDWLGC
Protocol: Sensor chip preparations and SPR measurements were performed using a BiacoreX device and the Bia-evaluation software (version 3.2; Biacore, Uppsala, Sweden). The pepsin-resistant triple-helical part of human fibrillar CI (100 μg/ml) in 10 mM acetate coupling buffer, pH 4.8, was immobilized to a dextran matrix-sensor chip at a flow rate of 5 μl/min, resulting in 5,500 resonance units from CI covalently linked via its primary amino groups. The control flow cell was prepared using the coupling buffer without CI. Surfaces were activated and blocked as described previously. […] The effects of (GPO)10, GAP, (POG)5, (GPP)10 and P33-42 on MMP-2 and MMP-9 binding to CI and their enzymatic activity were determined by adding the binding competitors to the (pro- and act)MMP-2 and MMP-9 solution in 10- to 150-fold molar excesses. Effects independent of MMP-2 and MMP-9 activity were monitored in the presence of Ro 28-2653 (1 μM) during SPR analysis. […] Kinetic parameters were analyzed using the 1:1 binding model with drifting baseline and subtraction of the control flow cell binding from sensorgrams obtained with immobilized CI. Binding constants (Kd) were calculated from the association (ka) and dissociation rates (kd) obtained from individual binding curves at different concentrations. […]

ProMMP-2 [3] = assay: DQ-gelatine degradation assay with MMP-2; type: biochemical, human; details: 5 h at 25°C
Protocol: as §1

- Off rate (proMMP-2 / CI; proMMP-2 (100 nM) binding to CI with 10× (GPO)10, PBS, 0.05% Tween 20): 0.37 s⁻¹
- effect on binding to CI (proMMP-2 / CI; proMMP-2, 10-fold molar excess): only slightly impaired
Substance: H-Gly-Cys-Hyp-(Gly-Pro-Hyp)10-Gly-Cys-Hyp-Gly-NH2 [(GPO)10, triple-helical Hyp-containing collagen analog]
- activation of proMMP-2 (ProMMP-2 [1]): resulted in the same plateau activity as actMMP-2 without (GPO)10
- substrate zymography, prodomain-free actMMP-2 band (ProMMP-2 [2]): faint band of prodomain-free actMMP-2; also recorded: not accompanied by strong prodomain cleavage
- DQ-gelatine cleavage by proMMP-2 (ProMMP-2 [3]; 50- to 100-fold molar excesses): significantly enhanced
- DQ-gelatine cleavage by proMMP-2 (ProMMP-2 [3]; 150-fold molar excess): shift from an active MMP-2 to an enzymatically blocked enzyme; also recorded: reduction of MMP-2 gelatinolytic activity
